Data reported in patent publication US20240210394A1, “MICROORGANISM CAPTURE FROM ANTIMICROBIAL-CONTAINING SOLUTION” (MOMENTUM BIOSCIENCE LIMITED, priority 2019, published 2024).
“And” between values parts separate entries of the source, which are not always exact repeats. Equal entries are not always repeated.

System: E. coli
Assay: ETGA (microbial polymerase) qPCR after microbial capture (Magnitor test)
Format: cell-based
Design: ETGA results CV: unit not given here
Description: The Magnitor test consists of two microbial detection read-outs: • ETGA: detection of microbial polymerase from intact microbial cells • Confirm: detection of microbial DNA according to gram status (Gram Negative, Gram Positive, or Candida) […]
• E. coli o/n liquid culture 1E-3 dilution spiked into blood broth (6.25 μL o/n per mL: 244 μL o/n+39 mL blood broth) and […] out-growth performed in shaking incubator @ 37° C., 500 rpm • Following 2-hour outgrowth, samples produced by adding 1 mL specimen to 2 mL tube containing buffer (and 15 μL BioEstapor beads (Merck, Cat #BE-M 08/0.3) for Mag Beads sample-set): triplicate E. coli (EC) and No Spike Control (NSC) samples per test condition • 100 μL TVCs performed for NSC and E. coli (including dilutions of specimen to ensure countable plates)
• Samples centrifuged for 3 minutes at 9000×g (tube hinges facing outwards for pellet traceability) • Supernatants removed • 50 μL LM added to samples (approx. 10× pipette mixes to resuspend pellets) • Samples placed in shaking incubator at 900 rpm for 5 minutes and then 800 rpm for 55 minutes (26° C.) • Centrifuge samples at 17000×g for 1 minute before qPCR set-up
• Samples placed in shaking incubator at 900 rpm for 30 minutes (37° C.) • Samples placed on DynaMag-2 magnetic rack for 5 minutes and then supernatants removed • 50 μL LM added to samples (approx. 10× pipette mixes to resuspend pellets) • Samples placed in shaking incubator at 900 rpm for 5 minutes and then 800 rpm for 55 minutes (26° C.) • Magnetise samples for 3 minutes before qPCR set-up Manual qPCR set-up (10 μL reactions) for ETGA mastermix only
• E. coli o/n liquid culture set-up as standard in BacTec PLUS aerobic broth, then following day (approx. 16 hours later) 1.88 μL o/n added to 3 mL broth (equivalent to EC 1E-1 dilution added to broth at 6.25 μL/mL) and 2-hour outgrowth performed at 37° C., 500 rpm. • Following 2-hour outgrowth, E. coli preculture serially diluted (DF10) down to EC 1E-6 in either prewarmed blood-broth (BB), broth only (BO) or 1× buffer (B-BUF or Tris+NaCl). • 100 μL TVCs performed for all E. coli dilutions and NSCs
• 1 mL samples added to 2 mL tubes containing 112 μL of binding buffer (either B-BUF or Tris+NaCl: 10× for BB and BO sample-sets; and 1× for Buffer sample-sets)+15 μL beads (prewashed in respective buffer) • 30 mins shaking (1000 rpm) @ 37° C. • 5 mins magnetisation on DynaMag-2 • All s/n removed • 1 mL WB added and tubes mixed for 2 mins @ RT (1000 rpm) • 5 mins magnetisation on Dynmag-2 • All s/n removed • 50 μL LM added to tubes off magnet (5 μL Polymerase Control (PC) added to each PC sample tube) • ETGA reaction performed: 5 mins at 1000 rpm, then 55 mins at 800 rpm @26° C. • Manual qPCR set-up for ETGA and Confirm (10 μL reactions)
• E. coli o/n liquid cultures set-up as standard in BacTec PLUS aerobic broth (containing SPS) and Nutrient Broth (NB containing no SPS), then the following day (approx. 16 hours later) 1.88 μL o/n added to 3 mL broth (equivalent to EC 1E-1 dilution added to broth at 6.25 μL/mL) for each broth type (NB in morning and PLUS broth in afternoon), and 2-hour outgrowth incubations performed at 37° C., 500 rpm. • For each experiment (NB and PLUS), 1E-1 E. coli preculture diluted down to E. coli 1E-6 (DF10) in each 1× buffer (BUF-1 to BUF-6) • 100 μL TVCs performed using a separate EC dilution set performed in relevant broth (NB or PLUS broth) to prevent plate viability inconsistencies resulting from different 1× buffers […]

Sodium polyanethol sulfonate [SPS]
ETGA results Ave. ΔCt (WB SPS 0.01 %): 4.70 | ETGA results CV (WB SPS 0.01 %): 56.59 | ETGA results (WB SPS 0.01 %, EC 1-3 replicates, Time ZERO): 27.90 Ct and 29.12 Ct and 28.14 Ct | ETGA results (WB SPS 0.01 %, NSC 1-3 replicates, NoCt changed to 50 Ct): 33.39 Ct and 33.06 Ct and 32.81 Ct | ETGA results Ave. ΔCt (WB SPS 0.02 %): 7.28 | ETGA results CV (WB SPS 0.02 %): 6.16 | ETGA results (WB SPS 0.02 %, EC 1-3 replicates, Time ZERO): 26.41 Ct and 25.88 Ct and 27.24 Ct | ETGA results (WB SPS 0.02 %, NSC 1-3 replicates, NoCt changed to 50 Ct): 33.20 Ct and 33.77 Ct and 34.41 Ct | ETGA results Ave. ΔCt (WB SPS 0.04 %): 9.65 | ETGA results CV (WB SPS 0.04 %): 4.40 | ETGA results (WB SPS 0.04 %, EC 1-3 replicates, Time ZERO): 29.31 Ct and 29.43 Ct and 29.70 Ct | ETGA results (WB SPS 0.04 %, NSC 1-3 replicates, NoCt changed to 50 Ct): 38.93 Ct and 39.93 Ct and 38.54 Ct | ETGA results Ave. ΔCt (WB SPS 0.06 %): 15.74 | ETGA results CV (WB SPS 0.06 %): 0.02 | ETGA results (WB SPS 0.06 %, EC 1-3 replicates, Time ZERO): 28.70 Ct and 28.50 Ct and 27.62 Ct | ETGA results (WB SPS 0.06 %, NSC 1-3 replicates, NoCt changed to 50 Ct): 44.62 Ct and 44.11 Ct and 43.30 Ct | ETGA results Ave. ΔCt (WB SPS 0.08 %): 18.12 | ETGA results CV (WB SPS 0.08 %): 0.01 | ETGA results (WB SPS 0.08 %, EC 1-3 replicates, Time ZERO): 32.31 Ct and 31.94 Ct and 31.40 Ct | ETGA results (WB SPS 0.08 %, NSC 1-3 replicates, NoCt changed to 50 Ct): 50.00 Ct | ETGA results Ave. EC (WB SPS 0.1 %): 34.07 Ct | ETGA results Ave. NSC (WB SPS 0.1 %): 50.00 Ct | ETGA results Ave. ΔCt (WB SPS 0.1 %): 15.93 | ETGA results CV (WB SPS 0.1 %): 0.02 | ETGA results (WB SPS 0.1 %, EC 1-3 replicates, Time ZERO): 33.76 Ct and 34.37 Ct and 34.08 Ct | ETGA results (WB SPS 0.1 %, NSC 1-3 replicates, NoCt changed to 50 Ct): 50.00 Ct
